Structures are written as SMILES.

The results in this text go back to BindingDB's records for PubMed 37122541 (Emory University, 2023).

In the experiment the target is rRNA adenine N-6-methyltransferase ErmC (Staphylococcus aureus). Kind of experiment: Inhibition of Staphylococcus aureus ErmC methyltransferase.

In turn, `CC(C)c1ccc(NC(=S)N/N=C/c2cc(Cl)cc(Cl)c2O)cc1` showed an IC50 of 450 nM.

The term IC50 denotes the concentration at which inhibition is half-maximal. Higher therefore signals weaker potency in that assay.
